In patent US11160808B2, “Compounds that enhance Atoh1 expression” (Massachusetts Eye & Ear Infirmary, priority 2008, dated 2021):

What was measured:
[1] = LD50 (median lethal dose) determination; type: cell-based
Description: IC50 is a measure of the effectiveness of a compound in inhibiting biological or biochemical function. LD50 is the amount of a compound required to kill half the members of a tested population.

[2] = test system: Math1 enhancer and minimal promoter Luciferase reporter in HEK cells; experiment: Math1 Luciferase reporter assay in HEK cells; type: cell-based, human; details: Homo sapiens, HEK293; for IC50: read-out: IC50; for maximal fold induction: read-out: Maximum (Fold DMSO)
Description: A human embryonic kidney (HEK) cell line stably expressing a Luciferase gene controlled by an Math1 enhancer and minimal promoter was used in a high-throughput screen (HTS) of 144,000 small molecules to identify compounds that increase Math1 expression (i.e., transcription and/or translation). Such compounds can be used to increase the conversion of stem cells, progenitor cells, and support cells to or towards a hair cell. Screens to identify such compounds are described by Li et al., (U.S. Publication No. 2005/0287127) and Li et al., (U.S. application Ser. No. 11/953,797).
HEK cells stably expressing the Math1 Luciferase reporter were plated onto 384 well plates and cultured overnight in medium containing 10% fetal calf serum (FCS). Activation of the Math1 enhancer was measured by the increase in luminescence on a plate reader following addition of a luciferase detection agent. The assay was optimized for cell number, time of incubation, volume of medium, cell lysis reagent and luciferase reagent. Luminescence levels were compared in cells with the Math1-luciferase construct with and without retinoic acid (1 μM), and/or a luciferase construct with and without the Math1 enhancer and minimal promoter region.
To improve assay sensitivity, and reduce the coefficient of variation (CV), a more sensitive luciferase reagent (BriteLite luciferase reporter assay reagent, Perkin Elmer) was used, and Triton-X-100 was added to the lysis reagent to ensure complete lysis of the cells. Following these changes a CV of 4.2% was recorded. These conditions were used for all high-throughput screens. The luminescence threshold for a compound to be positive was defined as a 2-fold increase above the control (e.g., cells exposed to DMSO).
Cells were seeded on 384 well plates and allowed to attach overnight at 37° C. with 5% CO2 in the absence of growth factors. Math1 activation was measured by the increase in luminescence on a plate reader following addition of a luciferase detection reagent. Luminescence was assessed at 24, 48, and 72 hours. These conditions were used to screen 144,000 compounds contained in the small molecule libraries at Harvard University's Laboratory for Drug Discovery in Neurodegeneration (LDDN).
HTS were performed using HEK-Math1 cells seeded in 384 well plates. One compound was added per well using pin transfer. The final concentration of each compound was […]. Cell were incubated in the presence of a compound for 48 hours at 37° C. with 5% CO2. Cell lysates then were collected and bioluminescence determined. Luminescence values were compared normalized against DMSO.
About 20000 compounds were screened per week in 50 plates of 384 well with the aid of robotic systems (Beckman Biomek FX). Compounds were screened at an average final concentration of 0.7 μM (in 0.04% DMSO) with each plate containing 16 wells of 1 μM retinoic acid, as a positive control, and 16 wells of 0.04% DMSO, as a vehicle control. Percent activation of luminescence in the test compounds was determined for cells treated with the compounds against cells treated with DMSO.
Ten compounds, randomly selected from the group of 110 compounds identified in Example 2, were further evaluated, as follows. HEK cells were plated on 96 well plates at a density of 100000 cells per well. One day after plating, 0.1, 1, and 5 μM of each positive compound was added per well in a 10% fetal bovine serum (FBS) DMEM solution. Cells were then lysed 48 hours after addition of the compound and Math1 expression was analyzed using a luciferase reporter assay, as described above, and real-time PCR.
The half maximal inhibitory concentration (IC50) and median lethal dose or Lethal Dose, 50% (LD50) were determined for each of the compounds identified in Example 2 using standard laboratory techniques. IC50 is a measure of the effectiveness of a compound in inhibiting biological or biochemical function. LD50 is the amount of a compound required to kill half the members of a tested population.

Structure (SMILES)	LD50 [1] [µM]	IC50 [2] [nM]	maximal fold induction [2]
CS(=O)(=O)n1nccc1-c1ccc(-c2ccc(F)cc2F)o1 [CP-0099289, 5-(5-(2,4-difluorophenyl)furan-2-yl)-1-(methylsulfonyl)-1H-pyrazole]	>10	> 10000	1.6
O=C(NNC(=S)Nc1ccc(F)cc1)c1ccccc1Cl [CP-0005186, 2-(2-chlorobenzoyl)-N-(4-fluorophenyl)hydrazine-carbothioamide]	>10	1000	1.8
O=C(c1cc(-c2ccc(Br)cc2)on1)N1CCOCC1 [CP-0075627, (5-(4-bromophenyl)isoxazol-3-yl)(morpholino)methanone]	>10	8000	2
Cc1cc(NC(=O)c2ccc3c(c2)OCO3)no1 [CP-0065665, N-(5-methylisoxazol-3-yl)benzo[d][1,3]dioxole-5-carboxamide]	>10	800	1.7
Cc1ccccc1-c1nnc(-c2ccccc2)o1 [CP-0062030, 2-phenyl-5-o-tolyl-1,3,4-oxadiazole]	>10	2000	1.6
COc1cccc(C(=O)Nc2nc3ccc(F)cc3s2)c1 [CP-0107060, N-(6-fluorobenzo[d]thiazol-2-yl)-3-methoxybenzamide]	>10	100	2.2
COc1ccc(COn2c(-c3ccc(OC)cc3)nc3ccc(Cl)cc32)cc1 [CP-0000557, 6-chloro-1-(4-methoxybenzyloxy)-2-(4-methoxyphenyl)-1H-benzo[d]imidazole]	30	20	2.6
O=C(c1ccc(-c2ccc(Br)cc2)o1)N1CCOCC1 [CP-0061777, (5-(4-bromophenyl)furan-2-yl)(morpholino)methanone]	>10	> 10000	2.1
Cn1c(COc2ccc(F)cc2)nc2ccccc21 [CP-0074806, 2-((4-fluorophenoxy)methyl)-1-methyl-1H-benzo[d]imidazole]	>10	700	1.8
COc1ccc(OCC(=O)Nc2nccs2)cc1 [CP-0063182, 2-(4-methoxyphenoxy)-N-(thiazol-2-yl)acetamide]	>10	200	1.7
O=C(CSc1nc2ccccc2c(=O)n1NC(=O)c1ccccc1)c1ccc(F)cc1 [CP-0036187, N-(2-(2-(4-fluorophenyl)-2-oxoethylthio)-4-oxoquinazolin-3(4H)-yl)benzamide]	>10	1000	2.3
COc1ccc(Br)c(-c2nc(-c3cccs3)no2)c1 [CP-0104904, 5-(2-bromo-5-methoxyphenyl)-3-(thiophen-2-yl)-1,2,4-oxadiazole]	>10	> 10000	2.2
COc1ccc(-c2ccc3c(n2)CCCN3)cc1 [CP-0080276, 6-(4-methoxyphenyl)-1,2,3,4-tetrahydro-1,5-naphthyridine]	>10	300	2
Cc1ccc2nc(-c3cc4ccccc4oc3=N)[nH]c2c1 [CP-0091818, 3-(6-methyl-1H-benzo[d]imidazol-2-yl)-2H-chromen-2-imine]	>10	900	2.1
NC(=O)c1c(NC(=O)c2cc3ccccc3o2)sc2c1CCC2 [CP-0087336, N-(3-carbamoyl-5,6-dihydro-4H-cyclopenta[b]thiophen-2-yl)benzofuran-2-carboxamide]	>10	80	2.2
Cc1cccc(-c2nc3cc(C)ccc3o2)c1 [CP-0103978, 5-methyl-2-m-tolylbenzo[d]oxazole]	>10	1000	2
